A word on the pIC50: it is the IC50 on a negative log10 scale, so that one unit is a factor of ten. Lower therefore signals a high IC50.

pIC50: −log10 of the molar value. Some results are limits rather than exact numbers.

One assay relates to YAP-TEAD interaction. Nature of the assay: SK-HEP-1 reporter assay (8xTEAD responsive elements driving NanoLuc luciferase). Conditions: Homo sapiens, SK-HEP1, SK-HEP-1 reporter assay. It counts as cell-based. Put shortly:
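Luminescence after NanoGlo addition gave reporter activity, and IC50 values came from duplicate 10-point curves (top final concentration 30 μM, 0.3% DMSO). The cells were SK-HEP-1 with a stably integrated 8×TEAD-driven NanoLuc gene, exposed to compound for 24 h at 37 °C.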
For orientation: In a reporter assay the amount or activity of a reporter protein is the signal.

For the next assay, the system named is SW620 Yap KO cells. Nature of the assay: Viability assay in SW620 Yap KO (Yap independent) cells, CyQUANT. It counts as cell-based. Conditions: Homo sapiens, SW-620. As for the experimental part:
Viability Assay in NCI-H226 (Yap-Dependent) and SW620 Yap KO (Yap Independent) Cells
The ability of YAP-TEAD inhibitors to inhibit tumor cell growth was evaluated using two different cell lines: NCI-H226, which is a YAP dependent cell line, and SW620 cells, where YAP and TAZ were knocked out using CRISPR to generate a YAP independent cell line.
For the assay, cells were treated in duplicates with the test compounds in a 10-point dose, 1:3 dilution steps, with the top concentration starting at 30 μM (final concentration in assay). After a 96 hour incubation at 37° C., 95% rH, and 5% CO2, a cell-permeant DNA-binding dye that stains only healthy cells (CyQUANT®, Promega) was added to the cells, allowing the quantification of cell viability.
Cell Media: The NCI-H226 cells were cultured in the following media: RPMI 1640, +10% FBS, +1× GlutaMAX, +10 mM HEPES, +0.5% Pen/Strep. The SW620-KO cells were cultured in the following media: DMEM/F-12, +10% FBS, +1× GlutaMAX, +10 mM HEPES, +0.5% Pen/Strep.
Reagents: The reagents used are listed below:
Cell culture: The cells were examined using an inverted microscope to check for health, cell density, etc. To dissociate adherent cells, the monolayer of cells was washed once with pre-warmed PBS. After removing the PBS, 3 ml pre-warmed Accutase was added to a F75 flask, dispersed evenly and the flask was allowed to sit in incubator for ˜4-5 minutes.
When a single cell suspension was obtained, 7 ml of prewarmed growth media was added and resuspended with the cells. The cell suspension was transferred to a sterile 15 ml conical centrifuge tube, and spun for 5 min at 300×g, RT. The supernatant was discarded and the pellet was resuspended in 10 ml of pre-warmed growth media.
The total cell count was determined, and 20 μl of the desired cell number was added to each well of a 384 well plate using a Multidrop Combi. The plates were then incubated for 24 hours at 37° C., 95% rH, and 5% CO2.
Compound treatment: 24 hours after seeding, the cells were treated with compounds.
A 1:333 dilution of compounds, diluted in DMSO, was made to get a final concentration of 0.3% DMSO per well. To transfer the compounds to the assay plate, 120 nl was shot from Labcyte low dead volume plates to the cell plates containing 20 μl media/well with the ECHO 555 liquid handling system.
After treatment, the cells were fed with 20 μl fresh pre-warmed assay media using a Multidrop combi.
The assay plates were then incubated for 96 h at 37° C., 95% rH, and 5% CO2.
96 h after treatment 30 μl of CyQuant® reagent was added to the assay plates using a Multidrop combi in the dark. The plates were then incubated for 1 hour at 37° C., 95% rH and 5% CO2. Thereafter, the assay plates were removed from the incubator and allowed to equilibrate to RT for 30 min in the dark without lid. Finally, they were measured using an EnVision microplate reader with a FITC bottom read program.

Assay [1] concerns NCI-H226 human mesothelioma tumor cells. Nature of the assay: NCI-H226 in vivo efficacy study (subcutaneous xenograft). Conditions: H2d Rag2 female mice, NCI-H226 tumors, po qd for 29 days. As to the method: NCI-H226 In Vivo Efficacy Study
7-9-week-old H2d Rag2 female mice (own breeding, Taconic-Denmark) were inoculated subcutaneously with 5×10^6 NCI-H226 human mesothelioma tumor cells in the right flank. Tumor growth and body weight was measured twice weekly using caliper. Tumor volume was calculated using the formula TV=L×W×W/2.
When tumor volume reached approximately 75-150 mm^3, animals were randomized (Day 0) into treatment groups (n=9-10/group) and treated perorally (po) once daily (qd) for 29 days with either vehicle (20% hydroxypropyl β-cyclodextrin in 50 mM PBS pH 7.4) or Compound no. 2. Compound no. 2 was tested at dosing levels of 1, 3, 10, 30, and 100 mg/kg, respectively. Results are depicted in FIG. 1 (tumor growth over time for vehicle group and each dosage group) and FIG. 2 (final tumor volume of vehicle group and each dosage group).
Statistical analysis of tumor volumes between treatment groups was done using repeated measures analysis of covariance (RM-ANCOVA) in a linear mixed effects model followed by least-squares means pairwise comparisons.
The animal experiment was performed under regulation of the German animal welfare act and in accordance with the EU laboratory animal directive for the area of animal experiments.

`Cn1cc2c3cc(C(=O)O)ccc3n(-c3ccc(C(F)(F)F)cc3)c2n1` [Example 2, 2-methyl-8-[4-(trifluoromethyl)phenyl]-2H,8H-pyrazolo[3,4-b]indole-5-carboxylic acid]: the results for the negative logarithm of the IC50 (pIC50) with YAP-TEAD interaction and with SW620 Yap KO cells were 8.00 to 9.00 and under 4.52, respectively. Besides, the “dosing levels showing maximal tumor growth inhibition” value in assay [1] was over 10 mg/kg. The “tumor growth inhibition compared to vehicle treated group” value in assay [1] (1, 3, 10, 30 and 100 mg/kg, all tested dosing levels, p-value <0.001) is given as “Significant tumor growth inhibition”.

Source of the values: patent publication US20230174538A1, “Tricyclic heterocycles” (Merck Patent GmbH, priority 2020, published 2023).
